Laboratory results published in US9278925B2, “Substituted 3-(biphenyl-3-yl)-4-hydroxy-8-methoxy-1-azaspiro[4.5]dec-3-en-2-one” (BAYER INTELLECTUAL PROPERTY GMBH, priority 2011, dated 2016).
Where two headings read alike, the source gives them in different places.

Key:
[1] = Plasma protein binding by equilibrium dialysis; assay type: in vitro ADME
Method: The binding of test substances to plasma proteins is determined by equilibrium dialysis by means of the Ht-dialysis apparatus (96-well) made of Teflon and a semipermeable membrane (regenerated cellulose, MWCO 12-14K). This separates 150 μl each of a plasma side and a buffer side (50 mM phosphate buffer). The test substance is added in 2 concentrations (usually 3 and 0.3 μM) to the plasma side and binds to plasma proteins. The unbound fraction of the test substance passes through the membrane and is distributed on either side until equilibrium is established (after approx. 6-8 h at 37° C.). The substance concentration on the buffer side and the plasma side is determined by LC-MS analysis. For this, both sides are brought by dilution with buffer or plasma to the same matrix (10% plasma) and then precipitated with methanol. The free (unbound) fraction (fu) is calculated from the quotient of the buffer and plasma concentration. Stability tests and recovery tests are run concurrently as controls. In addition, the substance in buffer is dialysed against buffer, to check the nonspecific binding to apparatus and membrane and establishment of equilibrium. Because during incubation the osmotic pressure of the plasma proteins leads to dilution of the plasma (volume shift), this possible error is determined by weighing blank plasma samples and is included in the calculation of fu. Establishment of equilibrium and plasma stability should have a value not lower than 80% and the recovery should be at least 30%. A free fraction of <1% is regarded as high, between 1 and 10% as moderate and >10% as low plasma protein binding.

[2] = molecular target: human serum albumin (HSA) (Homo sapiens (Human), UniProt P02768); test: Protein binding to human serum albumin (HSA-Transil); details: buffer pH 7.4
Sequence of human serum albumin (HSA) (P02768 25-609): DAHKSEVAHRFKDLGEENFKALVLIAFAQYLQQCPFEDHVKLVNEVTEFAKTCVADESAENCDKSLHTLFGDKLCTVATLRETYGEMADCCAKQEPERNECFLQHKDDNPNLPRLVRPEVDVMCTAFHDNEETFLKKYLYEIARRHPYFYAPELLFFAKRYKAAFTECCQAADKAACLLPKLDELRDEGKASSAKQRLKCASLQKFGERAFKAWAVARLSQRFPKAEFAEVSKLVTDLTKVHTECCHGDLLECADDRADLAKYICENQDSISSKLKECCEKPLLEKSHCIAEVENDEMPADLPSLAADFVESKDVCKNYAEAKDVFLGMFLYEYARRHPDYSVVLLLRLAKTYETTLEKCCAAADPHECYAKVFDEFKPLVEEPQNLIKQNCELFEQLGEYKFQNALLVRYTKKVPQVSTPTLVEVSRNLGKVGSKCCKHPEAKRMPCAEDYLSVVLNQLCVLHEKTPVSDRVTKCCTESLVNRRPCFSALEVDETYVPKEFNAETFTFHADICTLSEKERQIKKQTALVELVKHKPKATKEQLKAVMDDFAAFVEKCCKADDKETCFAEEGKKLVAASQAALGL
Method: Assays for Determining Membrane Affinity logMA and Protein Binding to Human Serum Albumin (HSA): Determination of membrane affinity and protein binding to human serum albumin (HSA) was carried out via Transil technology (literature: A. Loidl-Stahlhofen, A. Eckert, T. Hartmann, M. […] Pharm Sci 90, 599-606 (2001)). Transil® (commercially available from Sovicell in Leipzig, Germany) are glass beads (diameter 10-12 μm) coated with a double-layer membrane of phosphatidylcholine (MA-Transil) or covalently attached human serum albumin (HSA-Transil). To determine the logMA and the protein binding constant to HSA, the commercially available TRANSIL Intestinal Absorption & HSA Binding Combined Assay Kit was used. This is a 96-well microtitre plate (96 well-MTP) which is filled with Transil and can be used to determine MA-Transil and HSA-Transil binding of in each case eight active compounds. […] Two wells serve as reference and are only filled with buffer pH 7.4. Five further wells contain MA-Transil in various increasing concentrations, the five remaining wells contain HSA-Transil in various increasing concentrations. To determine binding of an active compound to Transil, the supernatant of the wells with Transil was quantified against the reference solution without Transil via HPLC-MS coupling (HPLC-MS=high performance liquid chromatography/mass spectrometry). This is how the individual steps of the assay were carried out: From the internal substance store, the active compounds were delivered in a 96-well MTP. This plate is referred to as mother plate. […] Warfarin, whose membrane affinity and binding to HSA is known, serves to check whether the measurement is correct. […] Using a Hamilton pipetting robot Microlab STAR, the 96 active compounds from the daughter plate were divided onto 12 Transil plates in total. From each well of the daughter plate, 12 times 20 μl were removed. The concentration of each well of the Transil plate was 0.25 μmol/liter, which corresponds to a dilution of 1 to 10. […] The filled Transil plates were each resuspended for two minutes, then allowed to stand at room temperature for at least two minutes and then centrifuged at 600 rotations per minute for five minutes. The pipetting robot was then used to remove 20 μl of supernatant from each well of the Transil plate and to transfer these to a separate microtitre plate. […] Prior to quantification of the active compounds by HPLC-MS, an optimization has to be carried out for each active compound where by way of a single injection daughter ion and optimum electrical voltages are determined. […] This microtitre plate was measured by HPLC-MS using the software Discovery Quant Optimize from AB Sciex. The three pooled microtitre plates were measured by HPLC-MS using the software Discovery Quant Analyze from AB Sciex. • Sciex Triple Quad 5500 mass spectrometer (from AB Sciex) • PAL Autosampler DLW Option Software: Analyst 1.4 (from AB Sciex) • Discovery Quant Optimize (from AB Sciex) • Discovery Quant Analyze (from AB Sciex) Optimization: […] Column: Poroshell 120 SB-C18 2.7 μm 3×30 mm Injection volume: 2 μl Flow rate: 1 ml/min: […] Evaluation of the HPLC peaks was carried out using Discovery Quant Analyze. The results (logMA and binding constant to HSA Kd) were calculated using an Excel workbook provided by Sovicell.

[3] = human plasma, read-out: fu [%] (human)
[4] = mouse plasma, read-out: fu [%] (mouse)
[5] = rat plasma, read-out: fu [%] (rat)

| SMILES | fraction unbound [1, 3] | fraction unbound [1, 4] | fraction unbound [1, 5] | Kd [2] [µM] | fu [%] (human) [1] | fu [%] (rat) [1] | fu [%] (mouse) ([1]; mouse plasma) | fu ratio mouse/human ([1]; mouse and human, plasma, Table 5) |
| --- | --- | --- | --- | --- | --- | --- | --- | --- |
| COC[C@]1(OC)CC[C@@]2(CC1)NC(=O)C(c1cc(-c3ccc(Cl)c(F)c3)ccc1C)=C2O [Example 1-4, (5r,8r)-3-(4′-Chloro-3′-fluoro-4-methylbiphenyl-3-yl)-4-hydroxy-8-methoxy-8-(methoxymethyl)-1-azaspiro[4.5]dec-3-en-2-one] | 0.0037 | 0.0217 | 0.0021 | 2.85 |  |  |  |  |
| CO[C@]1(C(F)(F)F)CC[C@]2(CC1)NC(=O)C(c1cc(-c3ccc(Cl)cc3)ccc1C)=C2O [Example 1-1, (5r,8r)-3-(4′-Chloro-4-methylbiphenyl-3-yl)-4-hydroxy-8-methoxy-8-(trifluoromethyl)-1-azaspiro[4.5]dec-3-en-2-one] | 0.002 | 0.0082 |  | 1.73 |  |  |  |  |
| COC[C@H]1CC[C@]2(CC1)NC(=O)C(c1cc(-c3ccc(Cl)cc3)ccc1C)=C2O [V.3-b, (5s,8s)-3-(4′-Chloro-4-methylbiphenyl-3-yl)-4-hydroxy-8-(methoxymethyl)-1-azaspiro[4.5]dec-3-en-2-one] | 0.0036 | 0.109 | 0.0779 | 4.2 |  |  |  |  |
| CO[C@]1(C)CC[C@]2(CC1)NC(=O)C(c1cc(-c3ccc(Cl)cc3)ccc1C)=C2O [Example V.1-a, (5r,8r)-3-(4′-Chloro-4-methylbiphenyl-3-yl)-4-hydroxy-8-methoxy-8-methyl-1-azaspiro[4.5]dec-3-en-2-one] |  |  |  | 4.84 | 0.38 | 0.23 | 2.49 |  |
| Cc1ccc(-c2ccc(Cl)c(F)c2)cc1C1=C(O)[C@]2(CC[C@](O)(C(F)(F)F)CC2)NC1=O [V.2-c, (5r,8r)-3-(4′-Chloro-3′-fluoro-4-methylbiphenyl-3-yl)-4,8-dihydroxy-8-(trifluoromethyl)-1-azaspiro[4.5]dec-3-en-2-one] |  |  |  | 1.38 |  |  |  |  |
| Cc1ccc(-c2ccc(Cl)cc2)cc1C1=C(O)[C@]2(CC[C@](O)(C(F)(F)F)CC2)NC1=O [V.1-c, (5r,8r)-3-(4′-Chloro-4-methylbiphenyl-3-yl)-4,8-dihydroxy-8-(trifluoromethyl)-1-azaspiro[4.5]dec-3-en-2-one] |  |  |  | 6.9 |  |  |  |  |
| CO[C@]1(C(F)(F)F)CC[C@]2(CC1)NC(=O)C(c1cc(-c3ccc(Cl)c(F)c3)ccc1C)=C2O [Example 1-2, (5r,8r)-3-(4′-Chloro-3′-fluoro-4-methylbiphenyl-3-yl)-4-hydroxy-8-methoxy-8-(trifluoromethyl)-1-azaspiro[4.5]dec-3-en-2-one] | 0.0026 | 0.014 |  | 1.79 |  |  |  |  |
| CO[C@]1(C)CC[C@]2(CC1)NC(=O)C(c1cc(-c3ccc(Cl)c(F)c3)ccc1C)=C2O [Example V.2-a, (5r,8r)-3-(4′-Chloro-3′-fluoro-4-methylbiphenyl-3-yl)-4-hydroxy-8-methoxy-8-methyl-1-azaspiro[4.5]dec-3-en-2-one] |  |  |  | 2.8 | 0.39 | 0.23 | 2.8 |  |
| COC[C@H]1CC[C@]2(CC1)NC(=O)C(c1cc(-c3ccc(Cl)c(F)c3)ccc1C)=C2O [V.4-b, (5s,8s)-3-(4′-Chloro-3′-fluoro-4-methylbiphenyl-3-yl)-4-hydroxy-8-(methoxymethyl)-1-azaspiro[4.5]dec-3-en-2-one] | 0.0141 | 0.0176 | 0.0011 | 3.64 |  |  |  | 1 |
| COC[C@]1(OC)CC[C@@]2(CC1)NC(=O)C(c1cc(-c3ccc(Cl)cc3)ccc1C)=C2O [Example 1-3, (5r,8r)-3-(4′-Chloro-4-methylbiphenyl-3-yl)-4-hydroxy-8-methoxy-8-(methoxymethyl)-1-azaspiro[4.5]dec-3-en-2-one] | 0.0041 | 0.038 |  | 4.8 |  |  |  |  |
